Test results: paper PMC8363620, “The ERAP1 active site cannot productively access the N-terminus of antigenic peptide precursors stably bound onto MHC class I” (Scientific Reports, 2021)
Where a SMILES comes first, the peptide text is derived from it. The star is where a group is joined. X1 = CC(C)CC(CP(=O)(O)[C@@H](N)CCc1ccccc1)C(=O)*

Tests used:
ERAP1 [1] = target: T1, ERAP1 (Homo sapiens, UniProt Q9NZ08); test: Fluorigenic enzymatic assay: inhibition of ERAP1 hydrolysis of Leu-AMC; assay type: biochemical
T1 construct: inferred from the nickel-NTA purification; made in house; host or cells: Hi5 insect cells, recombinant baculovirus
Procedure: Expression and purification of ERAP1 was performed as described previously. Briefly, ERAP1 was expressed in Hi5 insect cells after infection with recombinant baculovirus at 27 °C. Protein was isolated by affinity chromatography using nickel-nitrilotriacetic acid–agarose beads. Protein aliquots were kept at − 80 °C in Hepes/NaCl buffer pH 7.0 supplemented with 10% (v/v) glycerol, until needed.
ERAP1 enzymatic activity and inhibitor IC50 values were calculated as previously reported. Briefly, hydrolysis of the fluorescent substrate leucine-aminomethylcoumarin (Leu-AMC, Sigma–Aldrich, L2145) was followed at 460 nm (excitation at 380 nm) using a Spark 10 M (TECAN) multimode microplate reader. The IC50 of DG080 was calculated by using the equation log (inhibitor) versus response-variable slope of GraphPad Prism 8.0™.

ERAP1 [2] = target: T1, ERAP1; test: ERAP1 trimming of MHCI-bound peptide followed by native-PAGE; assay type: biochemical
ERAP1 [3] = target: T1, ERAP1; conditions: cited from earlier work
HLA-B*08:01 = HLA-B*08:01 (Homo sapiens, UniProt P01889, A93T/A95T/D138N/E176V/E187T/K202T/Q94N/R180D/S35A/V36M/Y33D/Y91F); conditions: cited from earlier work
HLA-B*08 [4] = conditions: non-covalently linked peptide, with AI9; cited from earlier work
ERAP1 [5] = target: T1, ERAP1; conditions: cited from earlier work; remark: listed apart in the source
HLA-B*08 [6] = test: Kinetic stability of complex by competition with SYPRO Orange (peptide dissociation); assay type: binding; conditions: 37 °C, 8 μM complex, 50X SYPRO Orange dye (4 μL in 20 μL), excitation 533 nm, emission 572 nm, non-covalent complex, each data point average of two repetitions
Procedure: (§1) The assay was performed in the Lightcycler 96 RT-PCR instrument as previously reported. Reaction mixtures (total volume 20 μL) consisted of 16 μL protein complex (final concentration 8 μΜ) and 4 μL of 50X SYPRO Orange dye (Sigma–Aldrich, S5692). Excitation wavelength was set at 533 nm and emission at 572 nm. The temperature was set at 37 °C for the duration of the experiment.

ERAP1 [7] = target: T1, ERAP1; test: ERAP1 trimming of MHCI-bound peptide followed by MALDI-TOF-MS; assay type: biochemical; conditions: 20 nM or 100 nM ERAP1; stopped with TFA; 100 mM DTT added to free peptide
Procedure: To confirm the above finding we followed the trimming reaction by MALDI-TOF–MS which allows the concurrent detection of several peptide species. HLA-B*08(E76C)- […] was incubated with either 20 nM or 100 nM of ERAP1 and the reaction was stopped by the addition of TFA and flash-frozen. MALDI-TOF–MS analysis was performed as described before, but with the addition of 100 mM DTT to reduce the disulfide linkage to the complex so that the freed peptide can be detected (Fig. 2D).
Detection of peptides bound onto ΗLA-B*08:01 by MALDI-TOF–MS was performed as previously described[17] with the exception that 100 mM DTT was added to 10 μL samples of ΗLA-B*08:01(E76C) protein complexes to break the disulfide bond and allow detection of the peptide.

HLA-B*08:01(E76C) = HLA-B*08:01(E76C) (Homo sapiens, UniProt P01889, A93T/A95T/D138N/E176V/E187T/K202T/Q94N/R180D/S35A/V36M/Y33D/Y91F); test: Thermal shift assay (DSF), melting temperature of HLA-B*08(E76C)/peptide complex; assay type: physicochemical; conditions: purified complex, Fig. 1F three repetitions shown
Procedure: The assay as well as the calculation of the melting temperature (Tm) of the complexes HLA-B*08:01(E76C)-DG080 and HLA-B*08:01(E76C)-AI12Cys were performed as previously reported.

HLA-B*08(E76C) [8] = target: T2, HLA-B*08(E76C) (Homo sapiens, UniProt P01889, A93T/A95T/D138N/E100C/E176V/E187T/K202T/Q94N/R180D/S35A/V36M/Y33D/Y91F); test: Kinetic stability of complex by competition with SYPRO Orange (peptide dissociation); assay type: binding; conditions: 37 °C
T2 construct: made in house
Procedure: as §1

HLA-B*08(E76C) [9] = target: T2, HLA-B*08(E76C); test: Peptide exchange with excess 9mer […] (AI9), native-PAGE; assay type: binding
Procedure: Separating gel was prepared by mixing 2.9 mL Tris–HCl 0.375 M pH 8.8 solution, 2 mL acrylamide solution 30%, 100 μL APS 10% w/v and 5 μL TEMED. Stacking gel was formed by mixing 2.14 mL Tris–HCl 0.375 M pH 8.8 solution, 0.34 mL acrylamide solution 30%, 50 μL APS 10% w/v and 5 μL TEMED. Sample loading buffer was formed by mixing 62.5 mM Tris–HCl pH 6.8 solution, 25% v/v glycerol and 1% v/v bromophenol blue solution. Running buffer consists of 25 mM Tris-base and 192 mM glycine. Electrophoresis is conducted at 4 °C, 100 V for 5 h. 1,5 µg of MHC I-peptide complexes and 3 µg of ERAP1 were used.

ERAP1 [10] = target: T1, ERAP1; test: ERAP1 ternary complex formation, native-PAGE band shift; assay type: binding; conditions: equimolar mixture of ERAP1 and complex
From the text: The phosphinic head of the DG080 pseudopeptide should provide it with high affinity for the active site of ERAP1. To validate this assumption, we mixed free DG080 with ERAP1 and followed ERAP1 activity using the small fluorigenic substrate L-Leucine-7-amido-4-methylcoumarin (Leu-AMC)[24]. […] Due to the low amounts of complex available, we performed assays at a fixed concentration of 1 μΜ for both free DG080 and HLA-B*08(E76C)-DG080 complex. At that concentration, free DG080 was able to inhibit almost 90% of ERAP1 activity, consistent with its measured IC50. […] We conclude that although DG080 in solution has full access to the ERAP1 active site, DG080 covalently bound onto HLA-B*08 has very limited access to the active site of ERAP1, possibly due to steric hindrances that limit a proper binding orientation necessary so that the ERAP1 active site can approach the MHCI binding groove. To validate the stability of the HLA-B*08(E76C)-DG080 versus ERAP1 trimming or peptide exchange, we first incubated the complex with 20 nM ERAP1 at 37 °C for 1 h and analyzed the sample by native-PAGE (Fig. 4C). […] To further explore a potential interaction between ERAP1 and the phosphinic N-terminus of the peptide bound onto HLA-B*08, we analyzed an equimolar mixture of ERAP1 with HLA-B*08(E76C)-DG080 by native PAGE (Fig. 4D). […]

[11] = target: Endoplasmic Reticulum Aminopeptidase 1 (ERAP1) (UniProt Q9NZ08)
[12] = 20 nM ERAP1, up to 2 h (0–120 min)

Work on `CC(C)CC(CP(=O)(O)[C@@H](N)CCc1ccccc1)C(=O)NCC(=O)N[C@@H](CO)C(=O)NCC(=O)N[C@@H](CO)C(=O)NCC(=O)N[C@@H](CO)C(=O)N[C@@H](C)C(=O)N[C@@H](C)C(=O)N[C@@H](CCCCN)C(=O)N[C@@H](CCCCN)C(=O)N[C@@H](CCCCN)C(=O)N[C@@H](Cc1ccc(O)cc1)C(=O)N[C@@H](CS)C(=O)N[C@@H](CC(C)C)C(=O)O` (stereo partly shown) [DG080] (X1-GSGSGSAAKKKYCL-OH) yielded an inhibition at 1 µM (ERAP1 [1]; free peptide, 1 μM, Leu-AMC hydrolysis, two measurements) of ~90% and an IC50 (ERAP1 [1]; free peptide, substrate Leu-AMC, excitation 380 nm, emission 460 nm, log(inhibitor) vs response-variable slope, each point average of two measurements) of 350 ± 89 nM.
In the case of ARAALRSRYWAI [listing 1 of 2 here], the “ERAP1 trimming: change in electrophoretic mobility (native-PAGE)” value (from here on “ERAP1 trimming: change”) (ERAP1 [2]; [12]) is listed as “ERAP1 was able to modify the electrophoretic mobility”, the “ERAP1 trimming half-life, MHCI-bound peptide (MALDI-TOF-MS)” value (ERAP1 [3]) is listed as 20 to 30 min and the “stability of complex with HLA-B*08:01” value (HLA-B*08:01) is listed as “thermodynamically stable but kinetically labile complex”. The “peptide exchange (native-PAGE)” value (HLA-B*08 [4]) was “similarly to the non-covalently linked AI12 peptide”, the “ERAP1 trimming half-life, MHCI-bound peptide (native-PAGE)” value (ERAP1 [5]) was 18 min and the “ERAP1 trimming while bound onto HLA-B*08:01” value (ERAP1 [5]; non-covalent complex, compared with solution) was “ERAP1 can apparently trim this peptide while it is bound onto HLA-B*08:01, albeit slower than in solution”.
For ARAALRSRYWAI [listing 2 of 2 here], the “half-life of complex (t1/2)” value (HLA-B*08 [6]) was 7 ± 1 min.
For “ARAALRSRYWCI [disulfide-linked HLA-B*08/peptide complex]”, the “ERAP1 trimming: change” value (ERAP1 [2]; [12]) was “no change in electrophoretic mobility was observed”, the “time-dependent decrease of 12mer peptide on incubation with ERAP1 (MALDI-TOF-MS)” value (ERAP1 [7]) was “no time-dependent decrease of the 12mer peptide” and the “melting temperature (Tm)” value (HLA-B*08:01(E76C)) was 44.0 ± 0.5 °C. The “half-life of complex (t1/2)” value (HLA-B*08(E76C) [8]; SYPRO Orange competition, 8 μM complex, 50X SYPRO Orange dye (4 μL in 20 μL), excitation 533 nm, emission 572 nm, each data point average of three repetitions) was 450 ± 38 min, the “slowing of dye access to MHC binding groove by covalently linking the peptide” value (HLA-B*08(E76C) [8]; vs non-covalent HLA-B*08-ARAALRSRYWAI complex) was “almost 2 orders of magnitude” and the “peptide exchange (native-PAGE) in presence of DTT” value (HLA-B*08(E76C) [9]; 100 μM ALRSRYWAI + DTT (100 μM in Fig. 2B legend), incubation at RT) was “full exchange of the ARAALRSRYWCI with ALRSRYWAI”. The “peptide exchange (electrophoretic mobility in native-PAGE)” value (HLA-B*08(E76C) [9]; excess ALRSRYWAI (100 μM), 60 min at RT, no DTT) was “did not alter the electrophoretic mobility of the complex in native-PAGE suggesting no peptide exchange”.
For “hFΨ[P(O)(OH)CH2]LGSGSGSAAKKKYCL [HLA-B*08(E76C)-DG080, disulfide-linked HLA-B*08/ phosphinic peptide complex]”, the “ERAP1 trimming: change” value (ERAP1 [2]; 20 nM ERAP1, 37 °C, 1 h) was “No change in electrophoretic mobility was observed”, the “band shift with ERAP1 (stable ternary complex formation)” value (ERAP1 [10]) was “No band shifts were evident” and the “effect on ERAP1 enzymatic activity” value (ERAP1 [1]; complex, 1 μM, Leu-AMC hydrolysis, two measurements) was “unable to fully inactivate ERAP1, and had only a marginal effect on its enzymatic activity”. The “peptide exchange (electrophoretic mobility in native-PAGE)” value (HLA-B*08(E76C) [9]; excess (100 μM) ALRSRYWAI, 37 °C, 1 h) was “no change in electrophoretic mobility was evident”.
With “phosphinic pseudopeptide DG080, hFΨ[P(O)(OH)CH2]…” the inhibition of ERAP1 hydrolysis of Leu-AMC by titrated free DG080, IC50 [11] was 350 nM and the inhibition of ERAP1 hydrolysis of the fluorigenic substrate at a fixed 1 μΜ of free DG080 [11] was 90%.
